# Data taken from PubChem BioAssay (NCI).
#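 Where inhibition never reached the appropriate level, the endpoint shown equals the highest concentration tested. Otherwise, values were interpolated linearly from a five-concentration, 48-hour dose response in 96-well plates. The concentration for 50% growth inhibition is given as GI50. At the TGI there is no net growth.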
# Experiments:
# Assay in all cases: NCI tumour cell line growth inhibition, 48 h
# 786-0 renal = system: 786-0 renal
# A498 renal = system: A498 renal
# A549 NSCLC = system: A549 NSCLC
# ACHN renal = system: ACHN renal
# BT-549 breast = system: BT-549 breast
# CAKI-1 renal = system: CAKI-1 renal
# CCRF-CEM leukemia = system: CCRF-CEM leukemia
# COLO 205 colon = system: COLO 205 colon
# DU-145 prostate = system: DU-145 prostate
# HCC-2998 colon = system: HCC-2998 colon
# HCT-116 colon = system: HCT-116 colon
# HCT-15 colon = system: HCT-15 colon
# HL-60(TB) leukemia = system: HL-60(TB) leukemia
# HOP-92 NSCLC = system: HOP-92 NSCLC
# HS 578T breast = system: HS 578T breast
# HT29 colon = system: HT29 colon
# IGROV1 ovarian = system: IGROV1 ovarian
# K-562 leukemia = system: K-562 leukemia
# KM12 colon = system: KM12 colon
# LOX IMVI melanoma = system: LOX IMVI melanoma
# M14 melanoma = system: M14 melanoma
# MALME-3M melanoma = system: MALME-3M melanoma
# MCF7 breast = system: MCF7 breast
# MDA-MB-231 breast = system: MDA-MB-231 breast
# MDA-MB-435 = system: MDA-MB-435
# MOLT-4 leukemia = system: MOLT-4 leukemia
# NCI-H23 lung = system: NCI-H23 lung
# NCI-H460 lung = system: NCI-H460 lung
# NCI-H522 lung = system: NCI-H522 lung
# NCI/ADR-RES ovarian = system: NCI/ADR-RES ovarian
# OVCAR-3 ovarian = system: OVCAR-3 ovarian
# OVCAR-4 ovarian = system: OVCAR-4 ovarian
# OVCAR-5 ovarian = system: OVCAR-5 ovarian
# OVCAR-8 ovarian = system: OVCAR-8 ovarian
# PC-3 prostate = system: PC-3 prostate
# RPMI-8226 leukemia = system: RPMI-8226 leukemia
# RXF 393 renal = system: RXF 393 renal
# SF-268 CNS = system: SF-268 CNS
# SF-295 CNS = system: SF-295 CNS
# SF-539 CNS = system: SF-539 CNS
# SK-MEL-28 melanoma = system: SK-MEL-28 melanoma
# SK-MEL-5 melanoma = system: SK-MEL-5 melanoma
# SK-OV-3 ovarian = system: SK-OV-3 ovarian
# SN12C renal = system: SN12C renal
# SNB-19 CNS = system: SNB-19 CNS
# SNB-75 CNS = system: SNB-75 CNS
# SR leukemia = system: SR leukemia
# SW-620 colon = system: SW-620 colon
# T-47D breast = system: T-47D breast
# TK-10 renal = system: TK-10 renal
# U251 CNS = system: U251 CNS
# UACC-257 melanoma = system: UACC-257 melanoma
# UACC-62 melanoma = system: UACC-62 melanoma
# UO-31 renal = system: UO-31 renal
smiles,measurement,setting,value
C#Cc1nc(Nc2cc(C)[nH]n2)c2ccccc2n1,GI50,786-0 renal,349 nM
same,TGI,786-0 renal,1130 nM
same,GI50,A498 renal,139 nM
same,TGI,A498 renal,300 nM
same,GI50,A549 NSCLC,394 nM
same,TGI,A549 NSCLC,2240 nM
same,GI50,ACHN renal,257 nM
same,TGI,ACHN renal,1710 nM
same,GI50,BT-549 breast,233 nM
same,TGI,BT-549 breast,475 nM
same,GI50,CAKI-1 renal,442 nM
same,TGI,CAKI-1 renal,2020 nM
same,GI50,CCRF-CEM leukemia,248 nM
same,TGI,CCRF-CEM leukemia,1310 nM
same,GI50,COLO 205 colon,279 nM
same,TGI,COLO 205 colon,674 nM
same,GI50,DU-145 prostate,396 nM
same,TGI,DU-145 prostate,1700 nM
same,GI50,HCC-2998 colon,216 nM
same,TGI,HCC-2998 colon,466 nM
same,GI50,HCT-116 colon,248 nM
same,TGI,HCT-116 colon,951 nM
same,GI50,HCT-15 colon,205 nM
same,TGI,HCT-15 colon,474 nM
same,GI50,HL-60(TB) leukemia,265 nM
same,TGI,HL-60(TB) leukemia,887 nM
same,GI50,HOP-92 NSCLC,293 nM
same,TGI,HOP-92 NSCLC,1250 nM
same,GI50,HS 578T breast,318 nM
same,TGI,HS 578T breast,> 46200 nM
same,GI50,HT29 colon,356 nM
same,TGI,HT29 colon,11300 nM
same,GI50,IGROV1 ovarian,220 nM
same,TGI,IGROV1 ovarian,563 nM
same,GI50,K-562 leukemia,349 nM
same,TGI,K-562 leukemia,> 100000 nM
same,GI50,KM12 colon,232 nM
same,TGI,KM12 colon,503 nM
same,GI50,LOX IMVI melanoma,151 nM
same,TGI,LOX IMVI melanoma,308 nM
same,GI50,M14 melanoma,232 nM
same,TGI,M14 melanoma,559 nM
same,GI50,MALME-3M melanoma,295 nM
same,TGI,MALME-3M melanoma,915 nM
same,GI50,MCF7 breast,197 nM
same,TGI,MCF7 breast,1670 nM
same,GI50,MDA-MB-231 breast,203 nM
same,TGI,MDA-MB-231 breast,424 nM
same,GI50,MDA-MB-435,213 nM
same,TGI,MDA-MB-435,563 nM
same,GI50,MOLT-4 leukemia,250 nM
same,TGI,MOLT-4 leukemia,685 nM
same,GI50,NCI-H23 lung,553 nM
same,TGI,NCI-H23 lung,3590 nM
same,GI50,NCI-H460 lung,346 nM
same,TGI,NCI-H460 lung,1430 nM
same,GI50,NCI-H522 lung,476 nM
same,TGI,NCI-H522 lung,1990 nM
same,GI50,NCI/ADR-RES ovarian,402 nM
same,TGI,NCI/ADR-RES ovarian,> 100000 nM
same,GI50,OVCAR-3 ovarian,242 nM
same,TGI,OVCAR-3 ovarian,520 nM
same,GI50,OVCAR-4 ovarian,347 nM
same,GI50,OVCAR-5 ovarian,332 nM
same,TGI,OVCAR-5 ovarian,995 nM
same,GI50,OVCAR-8 ovarian,325 nM
same,TGI,OVCAR-8 ovarian,> 100000 nM
same,GI50,PC-3 prostate,317 nM
same,TGI,PC-3 prostate,1400 nM
same,GI50,RPMI-8226 leukemia,83.5 nM
same,TGI,RPMI-8226 leukemia,460 nM
same,GI50,RXF 393 renal,136 nM
same,TGI,RXF 393 renal,301 nM
same,GI50,SF-268 CNS,313 nM
same,TGI,SF-268 CNS,1110 nM
same,GI50,SF-295 CNS,609 nM
same,TGI,SF-295 CNS,2260 nM
same,GI50,SF-539 CNS,189 nM
same,TGI,SF-539 CNS,451 nM
same,GI50,SK-MEL-28 melanoma,363 nM
same,TGI,SK-MEL-28 melanoma,1710 nM
same,GI50,SK-MEL-5 melanoma,139 nM
same,TGI,SK-MEL-5 melanoma,280 nM
same,GI50,SK-OV-3 ovarian,3190 nM
same,TGI,SK-OV-3 ovarian,> 100000 nM
same,GI50,SN12C renal,236 nM
same,TGI,SN12C renal,726 nM
same,GI50,SNB-19 CNS,2270 nM
same,TGI,SNB-19 CNS,81100 nM
same,GI50,SNB-75 CNS,167 nM
same,TGI,SNB-75 CNS,513 nM
same,GI50,SR leukemia,226 nM
same,TGI,SR leukemia,790 nM
same,GI50,SW-620 colon,327 nM
same,TGI,SW-620 colon,1300 nM
same,GI50,T-47D breast,390 nM
same,TGI,T-47D breast,2110 nM
same,GI50,TK-10 renal,427 nM
same,TGI,TK-10 renal,2910 nM
same,GI50,U251 CNS,256 nM
same,TGI,U251 CNS,885 nM
same,GI50,UACC-257 melanoma,200 nM
same,TGI,UACC-257 melanoma,631 nM
same,GI50,UACC-62 melanoma,165 nM
same,TGI,UACC-62 melanoma,332 nM
same,GI50,UO-31 renal,222 nM
same,TGI,UO-31 renal,792 nM
